# Measured values from patent US20120196899A1, “METHODS AND PRODUCTS FOR TREATING INFLAMMATION” (Rock Creek Pharmaceuticals, Inc., priority 2010, published 2012).
# Values joined by “and” are separate entries in the source; they are usually repeats but may differ in a detail not shown here. Identical values can stand only once. Like-named read-outs stand apart in the source and are kept apart here.
# Assay: Plasma pharmacokinetics after oral multi-dose anatabine polacrilex
# Assay type: in vivo, Sprague-Dawley rats
# Settings: for Cp,max(1): after dose 1, mean; for Cp,max(3): after dose 3, mean; for Cp,max(2): after dose 2, mean; for AUC(0-inf) / concentration at 270 min / concentration at 300 min / concentration at 475 min / concentration at 540 min / concentration at 600 min / concentration at 720 min / concentration at 30 min / concentration at 60 min / concentration at 235 min / half-life: Sprague-Dawley, rat, plasma; for AUC(0-inf) / half-life: po; for concentration at 270 min / concentration at 300 min / concentration at 475 min / concentration at 540 min / concentration at 600 min / concentration at 720 min / concentration at 30 min / concentration at 60 min / concentration at 235 min: oral, Avg. Conc. of anatabine in plasma, Male and Female
# Description: This study consisted of two groups of 8 animals each, 4 males and 4 females.
# Two formulations were prepared; one for each of the two treatment groups. The test compound was formulated for each treatment group just prior to the first dose administration and constantly stirred until dosing was completed (Table 37). Four aliquots of each dose level formulation were collected and stored at −80° C.
# The animals were weighed prior to dosing and received three doses p.o. of test compound at a volume of 5 mL/kg. Blood was collected via the venus plexus (retro-orbital) into tubes containing (K2) EDTA. No more than 0.5 mL was collected per time point.
# Plasma was separated as per package instructions for MICROTAINER® brand collection tubes (3 minutes, 2000×g). Plasma was decanted into microfuge tubes and stored at −80° C. Remaining test compound was placed at −80° C.
# Sample preparation. Plasma samples were treated with three volumes of methanol containing internal standard at 1 μM (R,S)-Antabine-2,4,5,6-d4), incubated 10 min at 4° C., and centrifuged. The amount of the test agent in the supernatant was determined by LC/MS/MS.
# Analysis. Samples were analyzed by LC/MS/MS using an Agilent 6410 mass spectrometer coupled with an Agilent 1200 high pressure liquid chromatography (HPLC) and a CTC PAL chilled autosampler, all controlled by MassHunter software (Agilent). After separation on a Hydrophilic interaction liquid chromatography (HILIC) HPLC column (Sepax) using an acetonitrile-ammonium acetate/acetic acid gradient system, peaks were analyzed by mass spectrometry (MS) using ESI ionization in multiple reaction monitoring (MRM) mode. MassHunter software was used to calculate the concentration of the test compounds in samples from the peak area using the appropriate calibration curves.
# Calibration samples. Calibration curves were determined in rat plasma. Calibration samples were prepared by diluting a 50× stock solution of the test compound in PBS with blank matrix to the appropriate concentration and these samples were prepared as described above in the sample preparation.
# Data Analysis. Descriptive statistics were calculated for all pharmacokinetic parameters. Elimination half-lives (t1/2) were calculated by linear regression of logarithmically transformed plasma concentration data for each period between doses and following the final dose.
# Total areas under the plasma concentration curves (AUC) and under the first moment curves (AUMC) were calculated using linear trapezoidal summation across all concentration time points as well as for intervals between each dose administration and following the final dose. […] Mean absorption times (MAT) were calculated according to the following relation: […]
# where MRT represents the mean residence time. This was calculated from the mean residence times.
# The statistical comparison of parameters between male and female animals was made using a two-tailed, unpaired, t-test with a 95 percent confidence interval. Repeated-measures analysis of variance (ANOVA) was used for multiple comparisons of Cp, max involving successive determinations on the same group of animals.
# [1] = 0.6 mg/kg, male and female combined, mean
# [2] = 6.0 mg/kg, male and female combined, mean
# [3] = all data combined (overall), mean
# [4] = both dose levels and genders combined, anatabine polacrilex p.o.
# [5] = both treatment groups combined, female rats, mean
# [6] = both treatment groups combined, male rats, mean
smiles,measurement,setting,value
"C1=CCC(c2cccnc2)NC1 (racemic) [Anatabine, 1,2,3,6-tetrahydro-[2,3′]bipyridinyl]","Cp,min(2)","0.6 mg/kg BW group, first value of male versus female comparison",15.3 ± 5.5 ng/mL
same,"Cp,min(2)","0.6 mg/kg BW group, second value of male versus female comparison",7.5 ± 1.7 ng/mL
same,"Cp,max(1)","0.6 mg/kg, female rats",38.3 ng/mL
same,"Cp,min(1)","0.6 mg/kg, female rats, mean",10.3 ng/mL
same,"Cp,min(2)","0.6 mg/kg, female rats, mean",7.5 ng/mL
same,MAT0→4 (mean absorption time),"0.6 mg/kg, female rats, mean",0.53 h
same,MTT0→4 (mean transit time),"0.6 mg/kg, female rats, mean",2.98 h
same,AUC0→∞,[1],285 ng·h/mL
same,MAT0→4,[1],0.61 h
same,MTT0→4,[1],3.06 h
same,"Cp,max(1)","0.6 mg/kg, male rats",34.3 ng/mL
same,"Cp,max(3)","0.6 mg/kg, male rats",37.3 ng/mL
same,"Cp,min(1)","0.6 mg/kg, male rats, mean",11.0 ng/mL
same,"Cp,min(2)","0.6 mg/kg, male rats, mean",15.3 ng/mL
same,MAT0→4 (mean absorption time),"0.6 mg/kg, male rats, mean",0.71 h
same,MTT0→4 (mean transit time),"0.6 mg/kg, male rats, mean",3.17 h
same,"Cp,min(2)","6.0 mg/kg BW group, first value of male versus female comparison",93 ± 16 ng/mL
same,"Cp,max(1)","6.0 mg/kg, female rats",260 ng/mL and 259.8 ng/mL
same,"Cp,max(2)","6.0 mg/kg, female rats",312 ng/mL and 312.0 ng/mL
same,"Cp,max(3)","6.0 mg/kg, female rats",375 ng/mL and 374.8 ng/mL
same,"Cp,min(1)","6.0 mg/kg, female rats, mean",52 ng/mL and 51.5 ng/mL
same,"Cp,min(2)","6.0 mg/kg, female rats, mean",180 ng/mL and 180.0 ng/mL
same,MAT0→4 (mean absorption time),"6.0 mg/kg, female rats, mean",0.30 h
same,MTT0→4 (mean transit time),"6.0 mg/kg, female rats, mean",2.76 h
same,AUC0→∞,[2],3496 ng·h/mL
same,MAT0→4,[2],0.52 h
same,MTT0→4,[2],2.97 h
same,"Cp,max(1)","6.0 mg/kg, male rats",287 ng/mL
same,"Cp,max(2)","6.0 mg/kg, male rats",305 ng/mL
same,"Cp,min(1)","6.0 mg/kg, male rats, mean",75 ng/mL
same,"Cp,min(2)","6.0 mg/kg, male rats, mean",93 ng/mL
same,MAT0→4 (mean absorption time),"6.0 mg/kg, male rats, mean",0.73 h
same,MTT0→4 (mean transit time),"6.0 mg/kg, male rats, mean",3.18 h
same,AUC(0-inf),"0.6 mg/kg, female rats, mean",290 ng·h/mL
same,AUC(0-inf),"0.6 mg/kg, male rats, mean",280 ng·h/mL
same,AUC(0-inf),"6.0 mg/kg, female rats, mean",3740 ng·h/mL
same,AUC(0-inf),"6.0 mg/kg, male rats, mean",3260 ng·h/mL
same,MAT0→4,[3],0.56 h
same,MTT0→4,[3],3.01 h
same,mean absorption time (MAT0→4),[4],0.56 ± 1.25 h
same,mean transit time (MTT0→4),[4],3.01 ± 1.25 h
same,concentration at 270 min,"both sexes, 0.2 mg/kg BW, dose group 0.2, combined male and female, 270 min",26 ng/mL
same,concentration at 300 min,"both sexes, 0.2 mg/kg BW, dose group 0.2, combined male and female, 300 min",27 ng/mL
same,concentration at 475 min,"both sexes, 0.2 mg/kg BW, dose group 0.2, combined male and female, 475 min",11 ng/mL
same,concentration at 540 min,"both sexes, 0.2 mg/kg BW, dose group 0.2, combined male and female, 540 min",30 ng/mL
same,concentration at 600 min,"both sexes, 0.2 mg/kg BW, dose group 0.2, combined male and female, 600 min",26 ng/mL
same,concentration at 720 min,"both sexes, 0.2 mg/kg BW, dose group 0.2, combined male and female, 720 min",13 ng/mL
same,concentration at 30 min,"both sexes, 0.2 mg/kg, dose group 0.2, combined male and female, 30 min",36 ng/mL
same,concentration at 60 min,"both sexes, 0.2 mg/kg, dose group 0.2, combined male and female, 60 min",31 ng/mL
same,concentration at 235 min,"both sexes, 0.2 mg/kg, dose group 0.2, combined male and female, 235 min",10 ng/mL
same,concentration at 30 min,"both sexes, 2 mg/kg BW, dose group 2, combined male and female, 30 min",201 ng/mL
same,concentration at 60 min,"both sexes, 2 mg/kg BW, dose group 2, combined male and female, 60 min",139 ng/mL
same,concentration at 235 min,"both sexes, 2 mg/kg BW, dose group 2, combined male and female, 235 min",63 ng/mL
same,concentration at 270 min,"both sexes, 2 mg/kg BW, dose group 2, combined male and female, 270 min",278 ng/mL
same,concentration at 300 min,"both sexes, 2 mg/kg BW, dose group 2, combined male and female, 300 min",222 ng/mL
same,concentration at 475 min,"both sexes, 2 mg/kg BW, dose group 2, combined male and female, 475 min",136 ng/mL
same,concentration at 540 min,"both sexes, 2 mg/kg BW, dose group 2, combined male and female, 540 min",286 ng/mL
same,concentration at 600 min,"both sexes, 2 mg/kg BW, dose group 2, combined male and female, 600 min",237 ng/mL
same,concentration at 720 min,"both sexes, 2 mg/kg BW, dose group 2, combined male and female, 720 min",194 ng/mL
same,half-life,"both sexes, 0.6 mg/kg, 0.6 mg/kg BW total p.o., after final dose, males and females combined, read-out: t1/2, terminal (converted)",1.79 ± 0.64 h
same,half-life,"both sexes, 0.6 mg/kg, male and female combined, mean, read-out: t1/2,0→4 (converted)",2.05 h
same,half-life,"both sexes, 0.6 mg/kg, male and female combined, mean, read-out: t1/2,terminal (converted)",1.79 h
same,half-life,"both sexes, 6 mg/kg, 6.0 mg/kg BW total p.o., after final dose, males and females combined, read-out: t1/2, terminal (converted)",4.53 ± 1.77 h
same,half-life,"both sexes, 6 mg/kg, male and female combined, mean, read-out: t1/2,0→4 (converted)",1.79 h
same,half-life,"both sexes, 6 mg/kg, male and female combined, mean, read-out: t1/2,terminal (converted)",4.53 h
same,half-life,"both sexes, all data combined (overall), mean, read-out: t1/2,0→4 (converted)",1.93 h
same,half-life,"both sexes, both dose levels and genders combined, anatabine polacrilex p.o., read-out: elimination half-life following the first oral dose (t1/2, 0→4) (converted)",1.93 ± 0.73 h
same,AUC(0-inf),"both sexes, 0.6 mg/kg BW total p.o., males and females combined",285 ± 77 ng·h/mL
same,AUC(0-inf),"both sexes, 6.0 mg/kg BW total p.o., males and females combined",3500 ± 559 ng·h/mL
same,MAT0→4,[5],0.42 h
same,MTT0→4,[5],2.87 h
same,MAT0→4,[6],0.72 h
same,MTT0→4,[6],3.18 h
same,Anatabine Concentration in rat plasma,"dose 0.2 mg/kg, female, […], individual animals 2A-2D",<LOQ
same,Anatabine Concentration in rat plasma,"dose 0.2 mg/kg, male, 30 min, individual animals 1A-1D",<LOQ
same,Anatabine Concentration in rat plasma,"dose 0.2 mg/kg, male, 60 min, individual animals 1A-1D",34 ng/mL
same,Anatabine Concentration in rat plasma,"dose 0.2 mg/kg, male, 235 min, individual animals 1A-1D",<LOQ and 13 ng/mL
same,Anatabine Concentration in rat plasma,"dose 0.2 mg/kg, male, 270 min, individual animals 1A-1D",31 ng/mL and 20 ng/mL
same,Anatabine Concentration in rat plasma,"dose 0.2 mg/kg, male, 300 min, individual animals 1A-1D",26 ng/mL and 29 ng/mL
same,Anatabine Concentration in rat plasma,"dose 0.2 mg/kg, male, 475 min, individual animals 1A-1D",9 ng/mL and <LOQ and 18 ng/mL
same,Anatabine Concentration in rat plasma,"dose 0.2 mg/kg, male, 540 min, individual animals 1A-1D",4 ng/mL and 28 ng/mL and 41 ng/mL
same,Anatabine Concentration in rat plasma,"dose 0.2 mg/kg, male, 600 min, individual animals 1A-1D",<LOQ and 17 ng/mL and 35 ng/mL
same,Anatabine Concentration in rat plasma,"dose 0.2 mg/kg, male, 720 min, individual animals 1A-1D",<LOQ and 5 ng/mL and 12 ng/mL
same,Anatabine Concentration in rat plasma,"dose 0.2 mg/kg, male, […], individual animals 1A-1D",<LOQ
same,Anatabine Concentration in rat plasma,"dose 2 mg/kg, female, 30 min, individual animals 4A-4D",78 ng/mL and 218 ng/mL and 98 ng/mL
same,Anatabine Concentration in rat plasma,"dose 2 mg/kg, female, 60 min, individual animals 4A-4D",81 ng/mL and 95 ng/mL and 165 ng/mL
same,Anatabine Concentration in rat plasma,"dose 2 mg/kg, female, 235 min, individual animals 4A-4D",75 ng/mL and 36 ng/mL and 23 ng/mL and 72 ng/mL
